Results published in PubChem BioAssay AID2060624 (Molecular Pharmacology Branch, DTP, NCI, 2025).
“And” between values parts separate entries of the source, which are not always exact repeats. Identical values can stand only once.

System: 217524-143-R1-J4-PDC spheroids with HUVEC/MSC, viability
Test: Anticancer human tumor 217524-143-R1-J4-PDC patient-derived pancreatic carcinoma cell line growth inhibition [CLK]
Conditions: for viability, T/C: stronger effect = lower value
Outline: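 Multi-cell-type spheroids combined patient-derived tumor cells with HUVEC endothelial cells and human mesenchymal stem cells. Paired agents were dosed in half-log steps down from about clinical Cmax, or from 10 microM where Cmax was unknown.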

[1] = curve of first compound, second compound 0.0316 µM
[2] = curve of first compound, second compound 0.1 µM
[3] = curve of first compound, second compound 0.316 µM
[4] = curve of first compound, second compound 1 µM
[5] = curve of first compound, second compound 3.16 µM
[6] = curve of first compound, second compound 10 µM
[7] = second compound 0.0316 µM, first compound 0.0316 µM
[8] = second compound 0.0316 µM, first compound 0.1 µM
[9] = second compound 0.0316 µM, first compound 0.316 µM
[10] = second compound 0.0316 µM, first compound 1 µM
[11] = second compound 0.1 µM, first compound 0.0316 µM
[12] = second compound 0.1 µM, first compound 0.1 µM
[13] = second compound 0.1 µM, first compound 0.316 µM
[14] = second compound 0.1 µM, first compound 1 µM
[15] = second compound 0.316 µM, first compound 0.0316 µM
[16] = second compound 0.316 µM, first compound 0.1 µM
[17] = second compound 0.316 µM, first compound 0.316 µM
[18] = second compound 0.316 µM, first compound 1 µM
[19] = second compound 1 µM, first compound 0.0316 µM
[20] = second compound 1 µM, first compound 0.1 µM
[21] = second compound 1 µM, first compound 0.316 µM
[22] = second compound 1 µM, first compound 1 µM
[23] = second compound 3.16 µM, first compound 0.0316 µM
[24] = second compound 3.16 µM, first compound 0.1 µM
[25] = second compound 3.16 µM, first compound 0.316 µM
[26] = second compound 3.16 µM, first compound 1 µM
[27] = second compound 10 µM, first compound 0.0316 µM
[28] = second compound 10 µM, first compound 0.1 µM
[29] = second compound 10 µM, first compound 0.316 µM
[30] = second compound 10 µM, first compound 1 µM
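Further: spheroids exposed to agents for seven days before reading.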
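Wherever viability, T/C is given: 100% = DMSO vehicle control viability.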

## O=c1[nH]cc(F)c(=O)[nH]1 + CNC(=O)c1ccc(Nc2nc(OC3CCCC3)c3c(-c4ccc5nc(C)oc5c4)c[nH]c3n2)c(OC)c1
[1]
  IC50: 768 nM
[2]
  IC50: < 31.6 nM
[3]
  IC50: < 31.6 nM
[4]
  IC50: < 31.6 nM
[5]
  IC50: < 31.6 nM
[6]
  IC50: < 31.6 nM
[7]
  viability, T/C: 79.9%
[8]
  viability, T/C: 86.3%
[9]
  viability, T/C: 61.6%
[10]
  viability, T/C: 48.3%
Second compound 0.0316 µM, first compound 3.16 µM
  viability, T/C: 30.7%
Second compound 0.0316 µM, first compound 10 µM
  viability, T/C: 29.1%
[11]
  viability, T/C: 40.4%
[12]
  viability, T/C: 37.5%
[13]
  viability, T/C: 39.4%
[14]
  viability, T/C: 35.6%
Second compound 0.1 µM, first compound 3.16 µM
  viability, T/C: 30%
Second compound 0.1 µM, first compound 10 µM
  viability, T/C: 26.7%
[15]
  viability, T/C: 32.3%
[16]
  viability, T/C: 36.7%
[17]
  viability, T/C: 31.5%
[18]
  viability, T/C: 29.9%
Second compound 0.316 µM, first compound 3.16 µM
  viability, T/C: 29.1%
Second compound 0.316 µM, first compound 10 µM
  viability, T/C: 21.5%
[19]
  viability, T/C: 29.6%
[20]
  viability, T/C: 26.7%
[21]
  viability, T/C: 24.8%
[22]
  viability, T/C: 21.9%
Second compound 1 µM, first compound 3.16 µM
  viability, T/C: 20.2%
Second compound 1 µM, first compound 10 µM
  viability, T/C: 13.9%
[23]
  viability, T/C: 27%
[24]
  viability, T/C: 30.4%
[25]
  viability, T/C: 21.7%
[26]
  viability, T/C: 23.4%
Second compound 3.16 µM, first compound 3.16 µM
  viability, T/C: 18.5%
Second compound 3.16 µM, first compound 10 µM
  viability, T/C: 13.4%
[27]
  viability, T/C: 23.2%
[28]
  viability, T/C: 27.4%
[29]
  viability, T/C: 22.4%
[30]
  viability, T/C: 22.6%
Second compound 10 µM, first compound 3.16 µM
  viability, T/C: 17.9%
Second compound 10 µM, first compound 10 µM
  viability, T/C: 13.1%

## COc1c(OCCCN2CCOCC2)ccc2c3n(c(=NC(=O)c4cnc(N)nc4)nc12)CCN3 + CNC(=O)c1ccc(Nc2nc(OC3CCCC3)c3c(-c4ccc5nc(C)oc5c4)c[nH]c3n2)c(OC)c1
[1]
  IC50: 6.97 nM
[2]
  IC50: < 3.16 nM
[3]
  IC50: < 3.16 nM
[4]
  IC50: < 3.16 nM
[5]
  IC50: < 3.16 nM
[6]
  IC50: < 3.16 nM
Second compound 0.0316 µM, first compound 0.00316 µM
  viability, T/C: 74.9%
Second compound 0.0316 µM, first compound 0.01 µM
  viability, T/C: 38.7%
[7]
  viability, T/C: 10.4%
[8]
  viability, T/C: 4.29%
[9]
  viability, T/C: 2.9%
[10]
  viability, T/C: 2.31%
Second compound 0.1 µM, first compound 0.00316 µM
  viability, T/C: 36.7%
Second compound 0.1 µM, first compound 0.01 µM
  viability, T/C: 21.8%
[11]
  viability, T/C: 9.86%
[12]
  viability, T/C: 3.54%
[13]
  viability, T/C: 3.16%
[14]
  viability, T/C: 2.09%
Second compound 0.316 µM, first compound 0.00316 µM
  viability, T/C: 22.1%
Second compound 0.316 µM, first compound 0.01 µM
  viability, T/C: 14.2%
[15]
  viability, T/C: 7.78%
[16]
  viability, T/C: 3.17%
[17]
  viability, T/C: 2.58%
[18]
  viability, T/C: 2.49%
Second compound 1 µM, first compound 0.00316 µM
  viability, T/C: 19.9%
Second compound 1 µM, first compound 0.01 µM
  viability, T/C: 10.9%
[19]
  viability, T/C: 4.57%
[20]
  viability, T/C: 3.24%
[21]
  viability, T/C: 1.78%
[22]
  viability, T/C: 1.77%
Second compound 3.16 µM, first compound 0.00316 µM
  viability, T/C: 21%
Second compound 3.16 µM, first compound 0.01 µM
  viability, T/C: 11.8%
[23]
  viability, T/C: 5.14%
[24]
  viability, T/C: 2.24%
[25]
  viability, T/C: 1.69%
[26]
  viability, T/C: 1.26%
Second compound 10 µM, first compound 0.00316 µM
  viability, T/C: 16.7%
Second compound 10 µM, first compound 0.01 µM
  viability, T/C: 9.36%
[27]
  viability, T/C: 5%
[28]
  viability, T/C: 2.58%
[29]
  viability, T/C: 1.86%
[30]
  viability, T/C: 1.37%

## O=c1[nH]cc(F)c(=O)[nH]1
Compound 0.0316 µM
  viability, T/C: 94.6% and 72.3%
Compound 0.1 µM
  viability, T/C: 93.9% and 80.7%
Compound 0.316 µM
  viability, T/C: 56.5% and 62.8%
Compound 1 µM
  viability, T/C: 38% and 36.6%
Compound 3.16 µM
  viability, T/C: 36.2% and 32.5%
Compound 10 µM
  viability, T/C: 29.7% and 25.7%
Curve of compound
  IC50: 457 nM and 563 nM
